Measurements as given in patent publication US20180186742A1, “PICOLINAMIDES AS FUNGICIDES” (Dow AgroSciences LLC, priority 2017, published 2018).
Like-named read-outs stand apart in the source and are kept apart here.

Tests used:
Type in all cases: in vivo
[1] = tested on: Zymoseptoria tritici; experiment: Leaf blotch of wheat (SEPTTR), disease control on wheat seedlings; conditions: low volume application at 121.5 g/H
Procedure, shortened: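 Z. tritici spores were inoculated onto wheat seedlings (Yuma, first leaf emerged) either before or after treatment. Treatment was an automated spray to run-off of acetone/Triton X-100 water solutions, or a track spray of EC formulations with 0.1% Trycol 5941. Plants were held in dew chambers at 20 °C and then a greenhouse at 20 °C. First-leaf severity (0–100%) was converted to percent control against untreated plants.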

[2] = tested on: Puccinia triticina; experiment: Wheat brown rust (PUCCRT), disease control on wheat seedlings; conditions: low volume application at 121.5 g/H
Procedure, shortened: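 Compounds in acetone, diluted with nine volumes of water containing 110 ppm Triton X-100, sprayed to run-off on first-leaf Yuma wheat seedlings; track-spray tests used EC formulations with 0.1% Trycol 5941. Puccinia triticina spores applied before or after treatment. Overnight dark dew room at 22° C, 100% humidity, then greenhouse at 24° C.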

[3] = tested on: Phakopsora pachyrhizi; experiment: Asian soybean rust (PHAKPA), disease control on soybean seedlings; conditions: High volume application at 25 ppm
Procedure, shortened: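 Two-week-old Williams 82 soybean seedlings were sprayed to run-off with compound in acetone/water (1:9) containing 0.011% Tween 20. Inoculation was 3 days before (curative) or 1 day after (protectant) treatment, followed by 24 h dark dew at 22 °C, 100% RH, then 23 °C; disease severity scored on sprayed leaves.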

[4] = 24 h, 1 Day Protectant, read-out: SEPTTR disease control, 1DP, LV activity
[5] = 72 h, 3 Day Curative, read-out: SEPTTR disease control, 3DC, LV activity
[6] = 24 h, 1 Day Protectant, read-out: PUCCRT disease control, 1DP, LV activity
[7] = 72 h, 3 Day Curative, read-out: PUCCRT disease control, 3DC, LV activity
[8] = 24 h, 1 Day Protectant, read-out: PHAKPA 1DP disease control rating
[9] = 72 h, 3 Day Curative, read-out: PHAKPA 3DC disease control rating

Row | Compound | pest or weed control at 121.5 g/ha [1, 4] [%] | pest or weed control at 121.5 g/ha [1, 5] [%] | pest or weed control at 121.5 g/ha [2, 6] [%] | pest or weed control at 121.5 g/ha [2, 7] [%] | pest or weed control at 25 ppm [3, 8] [%] | pest or weed control at 25 ppm [3, 9] [%]
1 | COc1cc(F)ccc1[C@@H](C1CCCC1)[C@H](C)OC(=O)[C@H](C)NC(=O)c1nccc(OC)c1OC(C)=O [Compound 224] | < 80 | < 0 | < 80 | < 80 | < 80 | < 0
2 | CCC(C)[C@H](c1ccc(F)cc1OC)[C@H](C)OC(=O)[C@H](C)NC(=O)c1nccc(OC)c1OC(C)=O (stereo partly drawn) [Compound 225] | > 80 | > 80 | > 80 | < 80 | > 80 | < 80
3 | COc1cc(F)ccc1[C@@H](C1CCC1)[C@H](C)OC(=O)[C@H](C)NC(=O)c1nccc(OC)c1OC(C)=O [Compound 226] | < 80 | < 80 | < 80 | < 80 | < 80 | < 0
4 | COc1cc(F)ccc1[C@H](C1CCCCC1)[C@H](C)OC(=O)[C@H](C)NC(=O)c1nccc(OC)c1OC(C)=O [Compound 227] | > 80 | > 80 | > 80 | > 80 | > 80 | < 80
5 | COc1cc(F)ccc1[C@H](C1CCCC1)[C@H](C)OC(=O)[C@H](C)NC(=O)c1nccc(OC)c1OC(C)=O [Compound 228] | > 80 | < 80 | > 80 | < 80 | > 80 | < 80
6 | CCC(CC)[C@@H](c1ccc(F)cc1OC)[C@H](C)OC(=O)[C@H](C)NC(=O)c1nccc(OC)c1OC(C)=O [Compound 229] | > 80 | > 80 | > 80 | < 80 | > 80 | < 80
7 | CCC(C)[C@@H](c1ccc(F)cc1OC)[C@H](C)OC(=O)[C@H](C)NC(=O)c1nccc(OC)c1OC(C)=O (stereo partly drawn) [Compound 230] | > 80 | < 80 | > 80 | > 80 | > 80 | < 80
8 | COc1cc(F)ccc1[C@H](C1CCC1)[C@H](C)OC(=O)[C@H](C)NC(=O)c1nccc(OC)c1OC(C)=O [Compound 231] | < 80 | < 80 | < 80 | < 80 | > 80 | < 80
9 | COc1cc(F)ccc1[C@H](C(C)C)[C@H](C)OC(=O)[C@H](C)NC(=O)c1nccc(OC)c1OC(C)=O [Compound 232] | > 80 | < 80 | > 80 | > 80 | > 80 | > 80
10 | COc1cc(F)ccc1[C@@H](C1CCCCC1)[C@H](C)OC(=O)[C@H](C)NC(=O)c1nccc(OC)c1OCOC(C)=O [Compound 233] | > 80 | > 80 | < 80 | < 80 | < 80 | < 80
11 | COc1cc(F)ccc1[C@@H](C1CCCC1)[C@H](C)OC(=O)[C@H](C)NC(=O)c1nccc(OC)c1OCOC(C)=O [Compound 234] | < 80 | < 80 | > 80 | < 80 | > 80 | < 0
12 | COc1cc(F)ccc1[C@H](C1CCCC1)[C@H](C)OC(=O)[C@H](C)NC(=O)c1nccc(OC)c1OCOC(C)=O [Compound 235] | < 80 | < 80 | > 80 | < 80 | > 80 | < 80
13 | COc1cc(F)ccc1[C@H](C1CCC1)[C@H](C)OC(=O)[C@H](C)NC(=O)c1nccc(OC)c1OCOC(C)=O [Compound 236] | < 80 | < 80 | < 80 | < 80 | > 80 | < 80
14 | COc1cc(F)ccc1[C@H](C(C)C)[C@H](C)OC(=O)[C@H](C)NC(=O)c1nccc(OC)c1OCOC(C)=O [Compound 237] | < 80 | < 80 | > 80 | > 80 | > 80 | > 80
15 | COCCC(=O)Oc1c(OC)ccnc1C(=O)N[C@@H](C)C(=O)O[C@@H](C)[C@H](c1ccc(F)cc1OC)C1CCC1 [Compound 238] | < 80 | < 80 | < 80 | < 80 | < 80 | < 80
16 | COCCC(=O)Oc1c(OC)ccnc1C(=O)N[C@@H](C)C(=O)O[C@@H](C)[C@H](c1ccc(F)cc1OC)C(C)C [Compound 239] | > 80 | < 80 | > 80 | > 80 | > 80 | > 80
17 | COc1ccnc(C(=O)N[C@@H](C)C(=O)O[C@@H](C)[C@@H](c2ccc(C)cc2C)C2CCC2)c1OCOC(C)=O [Compound 240] | < 80 | > 80 | > 80 | > 80 | > 80 | < 80
18 | COc1ccnc(C(=O)N[C@@H](C)C(=O)O[C@@H](C)[C@@H](c2ccc(C)cc2C)C2CCC2)c1OC(C)=O [Compound 241] | < 0 | > 80 | < 80 | < 80 | < 80 | < 80
19 | COc1ccnc(C(=O)N[C@@H](C)C(=O)O[C@@H](C)[C@H](c2ccc(Cl)cc2)C(C)C)c1OC(C)=O [Compound 242] | > 80 | > 80 | > 80 | > 80 | > 80 | < 80
20 | COc1ccnc(C(=O)N[C@@H](C)C(=O)O[C@@H](C)[C@H](c2ccc(C)c(F)c2)C(C)C)c1OC(C)=O [Compound 243] | < 0 | < 80 | > 80 | < 80 | > 80 | < 80
21 | COc1ccnc(C(=O)N[C@@H](C)C(=O)O[C@@H](C)[C@H](c2ccc(F)c(F)c2)C(C)C)c1OC(C)=O [Compound 244] | > 80 | < 80 | > 80 | > 80 | > 80 | < 80
22 | COc1ccnc(C(=O)NCC(=O)O[C@@H](C)[C@H](c2ccc(F)cc2C)C(C)C)c1OC(C)=O [Compound 346] | < 80 | < 80 | > 80 | > 80 | > 80 | < 80
23 | COc1ccnc(C(=O)N[C@H](C(=O)O[C@@H](C)[C@H](c2ccc(F)cc2C)C(C)C)C(C)C)c1OC(C)=O [Compound 347] | > 80 | > 80 | > 80 | < 80 | > 80 | > 80
24 | CC[C@H](C)[C@H](NC(=O)c1nccc(OC)c1OC(C)=O)C(=O)O[C@@H](C)[C@H](c1ccc(F)cc1C)C(C)C [Compound 348] | < 80 | < 80 | > 80 | < 80 | > 80 | < 80
25 | COc1ccnc(C(=O)N[C@@H](CC(C)C)C(=O)O[C@@H](C)[C@H](c2ccc(F)cc2C)C(C)C)c1OC(C)=O [Compound 349] | < 80 | < 80 | > 80 | < 80 | > 80 | < 80
